Measured values published in patent US12344597B2, “Alkoxy-substituted pyridinyl derivatives as LPA1 receptor antagonists and their use in the treatment of fibrosis” (IDORSIA PHARMACEUTICALS LTD, priority 2018, dated 2025).
pIC50: −log10 of the molar value.

Each compound was assayed against human LPA1 receptor (Homo sapiens (Human), UniProt Q92633) (assay: Beta-arrestin recruitment assay to determine IC50 values for human LPAR1). Conditions: antagonist mode, Tango EDG2-bla U2OS cells, LPA 18:1 500 nM final.
Format: cell-based
How it was run: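 Tango EDG2-bla U2OS cells: LPA-driven beta-arrestin/TEV protease recruitment releases Gal4-VP16, inducing beta-lactamase reporter read with live-cell substrate. Cells seeded 20 h at 37 °C beforehand. IC50 is antagonist concentration inhibiting 50% of maximal response.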

Sequence of human LPA1 receptor (Q92633 whole entry): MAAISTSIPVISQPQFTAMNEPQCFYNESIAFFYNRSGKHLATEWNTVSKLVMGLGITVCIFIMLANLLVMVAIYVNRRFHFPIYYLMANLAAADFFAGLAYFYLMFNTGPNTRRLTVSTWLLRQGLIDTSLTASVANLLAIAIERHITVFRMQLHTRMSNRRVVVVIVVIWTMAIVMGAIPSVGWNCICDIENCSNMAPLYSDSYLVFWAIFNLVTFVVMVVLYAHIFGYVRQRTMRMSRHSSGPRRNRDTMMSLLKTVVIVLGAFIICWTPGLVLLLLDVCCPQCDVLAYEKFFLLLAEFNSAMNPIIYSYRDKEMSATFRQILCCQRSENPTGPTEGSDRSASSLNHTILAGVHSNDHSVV

Compared with `Cc1ccc(NC(=O)C2(c3ccccc3C(C)C)CN(C(=O)/C=C\C(=O)O)C2)c(OC(F)F)n1` [Ex 12-77, (Z)-4-(3-((2-(difluoromethoxy)-6-methylpyridin-3-yl)carbamoyl)-3-(2-isopropylphenyl)azetidin-1-yl)-4-oxobut-2-enoic acid], `Cc1ccc(NC(=O)C2(c3ccccc3C(C)C)CN(C(=O)/C=C/C(=O)O)C2)c(OC(F)F)n1` [Ex 12-75, (E)-4-(3-((2-(difluoromethoxy)-6-methylpyridin-3-yl)carbamoyl)-3-(2-isopropylphenyl)azetidin-1-yl)-4-oxobut-2-enoic acid] is 0.21 log units lower in pIC50: 7.51 for the first, 7.30 for the second.

Going from `Cc1ccc(NC(=O)C2(c3ccccc3C(C)C)CN(C#N)C2)c(OC(F)F)n1` [Ex 11-6, 1-cyano-N-(2-(difluoromethoxy)-6-methylpyridin-3-yl)-3-(2-isopropylphenyl)azetidine-3-carboxamide] to `CNC[C@H](O)CN1CC(C(=O)Nc2ccc(C)nc2OC(F)F)(c2ccccc2C(C)C)C1` [Ex 11-84, (S)-N-(2-(difluoromethoxy)-6-methylpyridin-3-yl)-1-(2-hydroxy-3-(methylamino)propyl)-3-(2-isopropylphenyl)azetidine-3-carboxamide], the pIC50 falls from 7.96 to 7.35 (0.61 log units). The first is the more potent here.

Compared with `Cc1cc(Cl)nc(N2CC(C(=O)Nc3ccc(C)nc3OC(F)F)(c3ccccc3C(C)C)C2)n1` [Ex 18-26, 1-(4-chloro-6-methylpyrimidin-2-yl)-N-(2-(difluoromethoxy)-6-methylpyridin-3-yl)-3-(2-isopropylphenyl)azetidine-3-carboxamide], `Cc1ccc(NC(=O)C2(c3ccccc3C(C)C)CN(c3ncc(F)cn3)C2)c(OC(F)F)n1` [Ex 18-33, N-(2-(difluoromethoxy)-6-methylpyridin-3-yl)-1-(5-fluoropyrimidin-2-yl)-3-(2-isopropylphenyl)azetidine-3-carboxamide] is 1.20 log units higher in pIC50: 7.32 for the first, 8.52 for the second. The second is the more potent here.

Going from `Cc1ccc(NC(=O)C2(c3ccccc3C(C)C)CN(Cc3cnc(C(=O)O)cn3)C2)c(OC(F)F)n1` [Ex 11-55, 5-((3-((2-(difluoromethoxy)-6-methylpyridin-3-yl)-carbamoyl)3-(2-isopropylphenyl)azetidin-1-yl)methyl)pyrazine-2-carboxylic acid] to `Cc1ccc(NC(=O)C2(c3ccccc3C(C)C)CN(Cc3ncco3)C2)c(OC(F)F)n1` [Ex 11-47, N-(2-(difluoromethoxy)-6-methylpyridin-3-yl)-3-(2-isopropylphenyl)-1-(oxazol-2-ylmethyl)azetidine-3-carboxamide], the pIC50 rises from 6.85 to 7.39 (0.54 log units).

Going from `C=C(CC(=O)OC)C(=O)N1CC(C(=O)Nc2ccc(C)nc2OC(F)F)(c2ccccc2C(C)C)C1` [Ex 12-92, methyl 3-(3-((2-(difluoromethoxy)-6-methylpyridin-3-yl)carbamoyl)-3-(2-isopropylphenyl)azetidine-1-carbonyl)but-3-enoate] to `Cc1ccc(NC(=O)C2(c3ccccc3C(C)C)CN(C(=O)CNCC(C)(C)C(=O)O)C2)c(OC(F)F)n1` [Ex 45, 3-((2-(3-((2-(difluoromethoxy)-6-methylpyridin-3-yl)carbamoyl)-3-(2-isopropylphenyl)azetidin-1-yl)-2-oxoethyl)amino)-2,2-dimethylpropanoic acid], the pIC50 rises from 6.96 to 7.20 (0.24 log units).

First: Cc1ccc(NC(=O)C2(c3ccccc3C3CCC3)CNC2)c(OC(F)F)n1 [Ex 24, 3-(2-cyclobutylphenyl)-N-(2-(difluoromethoxy)-6-methylpyridin-3-yl)azetidine-3-carboxamide]
Second: Cc1ccc(NC(=O)C2(c3ccccc3C(C)C)CNC2)c(OC(C)C)n1 [Ex 2, N-(2-isopropoxy-6-methylpyridin-3-yl)-3-(2-isopropylphenyl)azetidine-3-carboxamide]
The pIC50 of the first is 1.02 log units higher: 7.51 for the first, 6.49 for the second.

Going from `Cc1ccc(NC(=O)C2(c3ccccc3C(C)C)CCN(S(=O)(=O)CCC(=O)OCc3ccccc3)CC2)c(OC(F)F)n1` [Ex 13-7, benzyl 3-((4-((2-(difluoromethoxy)-6-methylpyridin-3-yl)carbamoyl)-4-(2-isopropylphenyl)piperidin-1-yl)sulfonyl)propanoate] to `Cc1ccc(NC(=O)C2(c3ccccc3C(C)C)CN(S(=O)(=O)CCC(=O)OCc3ccccc3)C2)c(OC(F)F)n1` [Ex 13-4, Benzyl 3-((3-((2-(difluoromethoxy)-6-methylpyridin-3-yl)carbamoyl)-3-(2-isopropylphenyl)azetidin-1-yl)sulfonyl)propanoate], the pIC50 rises from 7.77 to 8.00 (0.23 log units). The second is the more potent here.

First: CC(C)c1ccccc1C1(C(=O)Nc2cc(F)cnc2OC(F)F)CNC1 [Ex 8, N-(2-(difluoromethoxy)-5-fluoropyridin-3-yl)-3-(2-isopropylphenyl)azetidine-3-carboxamide]
Second: COc1cnc(NC(=O)C2(c3ccccc3C(C)C)CNC2)c(OC)c1 [Ex 75, N-(3,5-dimethoxypyridin-2-yl)-3-(2-isopropylphenyl)azetidine-3-carboxamide]
The pIC50 of the first is 1.11 log units higher: 6.47 for the first, 5.36 for the second. The first is the more potent here.

Going from `Cc1ccc(NC(=O)C2(c3ccccc3C(C)C)CCN(C(=O)CC(C)(C)C(=O)O)C2)c(OC(F)F)n1` (centres unmarked) [Ex 12-83, 4-(3-((2-(difluoromethoxy)-6-methylpyridin-3-yl)carbamoyl)-3-(2-isopropylphenyl)pyrrolidin-1-yl)-2,2-dimethyl-4-oxobutanoic acid] to `Cc1ccc(NC(=O)C2(c3ccccc3C(C)C)CCN(C(=O)CC(=O)O)CC2)c(OC(F)F)n1` [Ex 12-66, 3-(4-((2-(difluoromethoxy)-6-methylpyridin-3-yl)carbamoyl)-4-(2-isopropylphenyl)piperidin-1-yl)-3-oxopropanoic acid], the pIC50 rises from 7.62 to 7.92 (0.30 log units). The second is the more potent here.

`Cc1ccc(NC(=O)C2(c3ccccc3C(C)C)CN(S(=O)(=O)C3(CC(=O)O)CC3)C2)c(OC(F)F)n1` [Ex 13-14, 2-(1-((3-((2-(difluoromethoxy)-6-methylpyridin-3-yl)carbamoyl)-3-(2-isopropylphenyl)azetidin-1-yl)sulfonyl)cyclopropyl)acetic acid] and `COC(=O)CS(=O)(=O)N1CCC(C(=O)Nc2ccc(C)nc2OC(F)F)(c2ccccc2C(C)C)CC1` [Ex 13-2, methyl 2-((4-((2-(difluoromethoxy)-6-methylpyridin-3-yl)carbamoyl)-4-(2-isopropylphenyl)piperidin-1-yl)sulfonyl)acetate] are within 0.2 log units of each other in pIC50: 8.00 for the first, 8.15 for the second.

Going from `Cc1ccc(NC(=O)C2(c3ccccc3C(C)C)CN(C[C@@H](O)CN(C)C)C2)c(OC(F)F)n1` [Ex 11-85, (S)-N-(2-(difluoromethoxy)-6-methylpyridin-3-yl)-1-(3-(dimethylamino)-2-hydroxypropyl)-3-(2-isopropylphenyl)azetidine-3-carboxamide] to `Cc1ccc(NC(=O)C2(c3ccccc3C(C)C)CN(C(=O)CCC(=O)NS(C)(=O)=O)C2)c(OC(F)F)n1` [Ex 12-119, N-(2-(difluoromethoxy)-6-methylpyridin-3-yl)-3-(2-isopropylphenyl)-1-(4-(methylsulfonamido)-4-oxobutanoyl)azetidine-3-carboxamide], the pIC50 rises from 6.72 to 7.46 (0.74 log units). The second is the more potent here.

Compared with `Cc1ccc(NC(=O)C2(c3ccccc3C(C)C)CN(C(=O)N3CCOCC3)C2)c(OC(F)F)n1` [Ex 17-27, N-(2-(difluoromethoxy)-6-methylpyridin-3-yl)-3-(2-isopropylphenyl)-1-(morpholine-4-carbonyl)azetidine-3-carboxamide], `Cc1ccc(NC(=O)C2(c3ccccc3C(C)C)CN(C(=O)c3nnn[nH]3)C2)c(OC(F)F)n1` [Ex 12-18, N-(2-(difluoromethoxy)-6-methylpyridin-3-yl)-3-(2-isopropylphenyl)-1-(1H-tetrazole-5-carbonyl)azetidine-3-carboxamide] is 0.92 log units higher in pIC50: 6.68 for the first, 7.60 for the second.

Compared with `Cc1ccc(NC(=O)C2(c3ncccc3C(C)C)CN(C(=O)NC3CC3)C2)c(OC(F)F)n1` [Ex 63, N1-cyclopropyl-N3-(2-(difluoromethoxy)-6-methylpyridin-3-yl)-3-(3-isopropylpyridin-2-yl)azetidine-1,3-dicarboxamide], `Cc1ccc(NC(=O)C2(c3ncccc3C(C)C)CN(c3nc(C)ccc3F)C2)c(OC(F)F)n1` [Ex 65, N-(2-(difluoromethoxy)-6-methylpyridin-3-yl)-1-(3-fluoro-6-methylpyridin-2-yl)-3-(3-isopropylpyridin-2-yl)azetidine-3-carboxamide] is 0.67 log units lower in pIC50: 8.10 for the first, 7.43 for the second.

`Cc1ccc(NC(=O)C2(c3ccccc3C(C)C)CCN(C(=O)OCC(=O)O)CC2)c(OC(F)F)n1` [Ex 14-2, 2-((4-((2-(difluoromethoxy)-6-methylpyridin-3-yl)carbamoyl)-4-(2-isopropylphenyl)piperidine-1-carbonyl)oxy)acetic acid] and `CCOC(=O)CC(=O)N1CCC(C(=O)Nc2ccc(C)nc2OC(F)F)(c2ccccc2C(C)C)CC1` [Ex 12-65, ethyl-3-(4-((2-(difluoromethoxy)-6-methylpyridin-3-yl)carbamoyl)-4-(2-isopropylphenyl)piperidin-1-yl)-3-oxopropanoate] are within 0.2 log units of each other in pIC50: 8.37 for the first, 8.52 for the second.

Compared with `COc1nc(C)ccc1NC(=O)C1(c2ccccc2C(C)C)CN(S(N)(=O)=O)C1` [Ex 15-16, 3-(2-isopropylphenyl)-N-(2-methoxy-6-methylpyridin-3-yl)-1-sulfamoylazetidine-3-carboxamide], `Cc1ccc(NC(=O)C2(c3ccccc3C(C)C)CN(C3=NC(=O)CO3)C2)c(OC(F)F)n1` [Ex 19, N-(2-(difluoromethoxy)-6-methylpyridin-3-yl)-3-(2-isopropylphenyl)-1-(4-oxo-4,5-dihydrooxazol-2-yl)azetidine-3-carboxamide] is 1.10 log units higher in pIC50: 7.30 for the first, 8.40 for the second.

First: Cc1ccc(NC(=O)C2(c3c(C)cccc3C(C)C)CNC2)c(OC(F)F)n1 [Ex 33, N-(2-(difluoromethoxy)-6-methylpyridin-3-yl)-3-(2-isopropyl-6-methylphenyl)azetidine-3-carboxamide]
Second: Cc1ccc(NC(=O)C2(c3ccccc3C3=CCCC3)CN(C(=O)CC(C)(C)C(=O)O)C2)c(OC(F)F)n1 [Ex 31-4, 4-(3-(2-(cyclopent-1-en-1-yl)phenyl)-3-((2-(difluoromethoxy)-6-methylpyridin-3-yl)carbamoyl)azetidin-1-yl)-2,2-dimethyl-4-oxobutanoic acid]
The pIC50 of the first is 0.43 log units higher: 7.48 for the first, 7.05 for the second. The first is the more potent here.
